Here are results for 23 compounds from patent US9085576B2 (AMGEN INC., priority 2013, dated 2015).

Assay [1] deals with Cathepsin D (Cat D) (Homo sapiens (Human), UniProt P07339). In words: In vitro enzymatic Cathepsin D (Cat D) FRET assay. The class given is biochemical. To be noted: read-out: CatD IC50.
Assay [2] has as its target Beta Secretase enzyme (BACE) (Homo sapiens (Human), UniProt P56817). In words: In vitro enzymatic BACE FRET assay. To be noted: read-out: BACE1 Enzyme assay IC50. The class given is biochemical.
Assay [3] concerns the target BACE (Homo sapiens (Human), UniProt P56817). In words: In vitro BACE cell-based assay (Aβ40 in conditioned medium, sandwich ELISA).

A word on the IC50: it is the concentration that inhibits the measured activity by half.

Chain of BACE (P56817 46-501, species assumed): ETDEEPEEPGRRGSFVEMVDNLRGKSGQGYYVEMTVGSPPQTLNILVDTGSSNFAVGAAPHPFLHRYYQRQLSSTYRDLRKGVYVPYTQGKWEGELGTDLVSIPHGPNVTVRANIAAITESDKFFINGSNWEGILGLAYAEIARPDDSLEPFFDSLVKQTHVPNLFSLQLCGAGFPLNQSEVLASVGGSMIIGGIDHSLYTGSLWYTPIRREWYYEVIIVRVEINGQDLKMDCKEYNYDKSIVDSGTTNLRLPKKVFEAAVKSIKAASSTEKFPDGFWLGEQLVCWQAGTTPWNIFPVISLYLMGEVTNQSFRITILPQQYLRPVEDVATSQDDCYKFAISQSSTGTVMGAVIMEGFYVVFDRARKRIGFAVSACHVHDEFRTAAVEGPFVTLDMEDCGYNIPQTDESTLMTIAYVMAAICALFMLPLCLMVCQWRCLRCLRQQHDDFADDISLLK
Chain of Beta Secretase enzyme (BACE) (P56817 46-501): as the sequence (P56817 46-501, species assumed) above
Chain of Cathepsin D (Cat D) (P07339 65-412, species assumed): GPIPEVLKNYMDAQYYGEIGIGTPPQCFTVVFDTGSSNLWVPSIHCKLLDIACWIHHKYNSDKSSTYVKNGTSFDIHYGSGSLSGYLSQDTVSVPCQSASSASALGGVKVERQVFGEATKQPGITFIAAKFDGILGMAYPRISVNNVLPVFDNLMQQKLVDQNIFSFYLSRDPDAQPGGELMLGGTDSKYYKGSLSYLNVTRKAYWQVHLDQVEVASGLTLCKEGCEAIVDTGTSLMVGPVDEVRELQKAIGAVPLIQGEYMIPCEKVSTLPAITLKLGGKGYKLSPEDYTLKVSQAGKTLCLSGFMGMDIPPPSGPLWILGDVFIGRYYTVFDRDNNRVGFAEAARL

As for `NC1=N[C@](CF)(c2cc(NC(=O)c3ccc(Br)cn3)ccc2Cl)[C@H]2C[C@H]2O1` [Example 274, N-(3-((1R,5S,6R)-3-amino-5-(fluoromethyl)-2-oxa-4-azabicyclo[4.1.0]hept-3-en-5-yl)-4-chlorophenyl)-5-bromopicolinamide], the figures for the concentration for half-maximal inhibition (IC50) in assay [1], in assay [2] and in assay [3] were 538 µM, 0.0322 µM and 0.012 µM, respectively.
As for `NC1=N[C@@](CF)(c2cc(NC(=O)c3ccc(Br)cn3)ccc2Cl)[C@@H]2C[C@@H]2O1` [Example 275, N-(3-((1S,5R,6S)-3-amino-5-(fluoromethyl)-2-oxa-4-azabicyclo[4.1.0]hept-3-en-5-yl)-4-chlorophenyl)-5-bromopicolinamide], the IC50 in assay [1] stood at 1130 µM; in assay [2], 3.6 µM; in assay [3], 0.906 µM.
For `N#Cc1ccc(C(=O)Nc2ccc(Cl)c([C@@]3(CF)N=C(N)O[C@@H]4C[C@@H]43)c2)nc1` [Example 277, N-(3-((1R,5S,6R)-3-amino-5-(fluoromethyl)-2-oxa-4-azabicyclo[4.1.0]hept-3-en-5-yl)-4-chlorophenyl)-5-cyanopicolinamide], the IC50 was 1560 µM in assay [1], 0.0568 µM in assay [2] and 0.0192 µM in assay [3].
For the compound `N#Cc1ccc(C(=O)Nc2ccc(Cl)c([C@]3(CF)N=C(N)O[C@H]4C[C@H]43)c2)nc1` [Example 278, N-(3-((1 S,5R,6S)-3-amino-5-(fluoromethyl)-2-oxa-4-azabicyclo[4.1.0]hept-3-en-5-yl)-4-chlorophenyl)-5-cyanopicolinamide], the IC50 was found to be 904 µM in assay [1], 9.51 µM in assay [2] and 2.64 µM in assay [3].
Taken in the same sequence, the figures for `C#CCOc1cnc(C(=O)Nc2ccc(Cl)c([C@@]3(CF)N=C(N)O[C@@H]4C[C@@H]43)c2)cn1` [Example 279, N-(3-((1R,5S,6R)-3-amino-5-(fluoromethyl)-2-oxa-4-azabicyclo[4.1.0]hept-3-en-5-yl)-4-chlorophenyl)-5-(prop-2-yn-1-yloxy)pyrazine-2-carboxamide] were 124 µM, 0.0056 µM and 0.0086 µM.
For the compound `C#CCOc1cnc(C(=O)Nc2ccc(Cl)c([C@]3(CF)N=C(N)O[C@H]4C[C@H]43)c2)cn1` [Example 280, N-(3-((1S,5R,6S)-3-amino-5-(fluoromethyl)-2-oxa-4-azabicyclo[4.1.0]hept-3-en-5-yl)-4-chlorophenyl)-5-(prop-2-yn-1-yloxy)pyrazine-2-carboxamide], the IC50 turned out to be 1470 µM in assay [1], 4.78 µM in assay [2] and 2.89 µM in assay [3].
For the compound `COc1ccc(C(=O)Nc2ccc(Cl)c([C@@]3(CF)N=C(N)O[C@@H]4C[C@@H]43)c2)nc1` [Example 282, N-(3-((1R,5S,6R)-3-amino-5-(fluoromethyl)-2-oxa-4-azabicyclo[4.1.0]hept-3-en-5-yl)-4-chlorophenyl)-5-methoxypicolinamide], the IC50 amounted to 650 µM in assay [1], 0.196 µM in assay [2] and 0.0243 µM in assay [3].
Taken in the same sequence, the figures for `COc1cnc(C(=O)Nc2ccc(Cl)c([C@@]3(CF)N=C(N)O[C@@H]4C[C@@H]43)c2)c(Cl)c1` [Example 284, N-(3-((1R,5S,6R)-3-amino-5-(fluoromethyl)-2-oxa-4-azabicyclo[4.1.0]hept-3-en-5-yl)-4-chlorophenyl)-3-chloro-5-methoxypicolinamide] were 752 µM, 0.122 µM and 0.0149 µM.
Take `CC#CCOc1cnc(C(=O)Nc2ccc(Cl)c([C@@]3(CF)N=C(N)O[C@@H]4C[C@@H]43)c2)cn1` [Example 285, N-(3-((1R,5S,6R)-3-amino-5-(fluoromethyl)-2-oxa-4-azabicyclo[4.1.0]hept-3-en-5-yl)-4-chlorophenyl)-5-(but-2-yn-1-yloxy)pyrazine-2-carboxamide]: the 50% inhibitory concentration (IC50) in assay [1] turned out to be 1830 µM; in assay [2], 0.0022 µM; in assay [3], 0.0006 µM.
On to `NC1=N[C@@](c2cc(NC(=O)c3cccc(Cl)n3)ccc2F)(C(F)F)[C@H]2C[C@H]2O1` [Example 286, N-(3-((1R,5S,6R)-3-amino-5-(difluoromethyl)-2-oxa-4-azabicyclo[4.1.0]hept-3-en-5-yl)-4-fluorophenyl)-6-chloropicolinamide], for which the IC50 is 725 µM in assay [1], 1.57 µM in assay [2] and 1.12 µM in assay [3].
For the compound `NC1=N[C@@](c2cc(NC(=O)c3cc(Cl)ccn3)ccc2F)(C(F)F)[C@H]2C[C@H]2O1` [Example 287, N-(3-((1R,5S,6R)-3-amino-5-(difluoromethyl)-2-oxa-4-azabicyclo[4.1.0]hept-3-en-5-yl)-4-fluorophenyl)-4-chloropicolinamide], the IC50 in assay [1] was determined as 1630 µM; in assay [2] it was 1.93 µM; in assay [3], 2.11 µM.
With `CC(C)c1cccnc1C(=O)Nc1ccc(F)c([C@@]2(C(F)F)N=C(N)O[C@@H]3C[C@@H]32)c1` [Example 288, N-(3-((1R,5S,6R)-3-amino-5-(difluoromethyl)-2-oxa-4-azabicyclo[4.1.0]hept-3-en-5-yl)-4-fluorophenyl)-3-isopropylpicolinamide], the half-maximal inhibitory concentration (IC50) in assay [1] came to 1260 µM; in assay [2], 3.35 µM; in assay [3] it was 2.22 µM.
Consider `CC(C)c1cc(Cl)cnc1C(=O)Nc1ccc(F)c([C@@]2(C(F)F)N=C(N)O[C@@H]3C[C@@H]32)c1` [Example 289, N-(3-((1R,5S,6R)-3-amino-5-(difluoromethyl)-2-oxa-4-azabicyclo[4.1.0]hept-3-en-5-yl)-4-fluorophenyl)-5-chloro-3-isopropylpicolinamide], for which the half-maximal inhibitory concentration (IC50) is 700 µM in assay [1], 0.305 µM in assay [2] and 0.116 µM in assay [3].
`NC1=N[C@@](c2cc(NC(=O)c3ncc(Br)cc3C(F)F)ccc2F)(C(F)F)[C@H]2C[C@H]2O1` [Example 290, N-(3-((1R,5S,6R)-3-amino-5-(difluoromethyl)-2-oxa-4-azabicyclo[4.1.0]hept-3-en-5-yl)-4-fluorophenyl)-5-bromo-3-(difluoromethyl) picolinamide]: the values for the IC50 in assay [1], in assay [2] and in assay [3] were 252 µM, 0.0141 µM and 0.0222 µM, respectively.
For `NC1=N[C@@](c2cc(NC(=O)c3ccc(-c4ccccc4)cn3)ccc2F)(C(F)F)[C@H]2C[C@H]2O1` [Example 291, N-(3-((1R,5S,6R)-3-amino-5-(difluoromethyl)-2-oxa-4-azabicyclo[4.1.0]hept-3-en-5-yl)-4-fluorophenyl)-5-phenylpicolinamide], the IC50 is 148 µM in assay [1], 1.15 µM in assay [2] and 1.87 µM in assay [3].
As to `NC1=N[C@@](c2cc(NC(=O)c3ccccn3)ccc2F)(C(F)F)[C@H]2C[C@H]2O1` [Example 292, N-(3-((1R,5S,6R)-3-amino-5-(difluoromethyl)-2-oxa-4-azabicyclo[4.1.0]hept-3-en-5-yl)-4-fluorophenyl) picolinamide], the 50% inhibitory concentration (IC50) in assay [1] amounted to 690 µM; in assay [2], 0.3 µM; in assay [3], 0.279 µM.
For `Cc1cccnc1C(=O)Nc1ccc(F)c([C@@]2(C(F)F)N=C(N)O[C@@H]3C[C@@H]32)c1` [Example 293], the IC50 stood at 1660 µM in assay [1], 0.271 µM in assay [2] and 0.601 µM in assay [3].
Take `COc1cnc(C(=O)Nc2ccc(C)c([C@@]3(C(F)F)N=C(N)O[C@@H]4C[C@@H]43)c2)cn1` [Example 294, N-(3-((1R,5S,6R)-3-amino-5-(difluoromethyl)-2-oxa-4-azabicyclo[4.1.0]hept-3-en-5-yl)-4-methylphenyl)-5-methoxypyrazine-2-carboxamide]: the IC50 amounted to 684 µM in assay [1], 0.314 µM in assay [2] and 0.0612 µM in assay [3].
In the case of `Cc1ccc(NC(=O)c2ccc(Cl)cn2)cc1[C@@]1(C(F)F)N=C(N)O[C@@H]2C[C@@H]21` [Example 295, N-(3-((1R,5S,6R)-3-amino-5-(difluoromethyl)-2-oxa-4-azabicyclo[4.1.0]hept-3-en-5-yl)-4-methylphenyl)-5-chloropicolinamide], the figures for the IC50 in assay [1], in assay [2] and in assay [3] were 464 µM, 0.0903 µM and 0.0129 µM, respectively.
Take `NC1=N[C@](c2cc(NC(=O)c3ccc(Br)cn3)ccc2F)(C(F)F)[C@@H]2C[C@@H]2O1` [Example 296, N-(3-((1S,5R,6S)-3-amino-5-(difluoromethyl)-2-oxa-4-azabicyclo[4.1.0]hept-3-en-5-yl)-4-fluorophenyl)-5-bromopicolinamide]: the IC50 in assay [1] was found to be 1860 µM; in assay [2], 4.19 µM; in assay [3], 3.51 µM.
For `COc1cnc(C(=O)Nc2cc(C)c(F)c([C@@]3(C(F)F)N=C(N)O[C@@H]4C[C@@H]43)c2)c(C)n1` [Example 300, N-(3-((1R,5S,6R)-3-amino-5-(difluoromethyl)-2-oxa-4-azabicyclo[4.1.0]hept-3-en-5-yl)-4-fluoro-5-methylphenyl)-5-methoxy-3-methylpyrazine-2-carboxamide], the figures for the IC50 in assay [1], in assay [2] and in assay [3] were 447 µM, 0.142 µM and 0.0405 µM, respectively.
Turning to `COc1cnc(C(=O)Nc2ccc(Cl)c([C@@]3(CF)N=C(N)O[C@@H]4C[C@@H]43)c2)c(C)n1` [Example 301, N-(3-((1R,5S,6R)-3-amino-5-(fluoromethyl)-2-oxa-4-azabicyclo[4.1.0]hept-3-en-5-yl)-4-chlorophenyl)-5-methoxy-3-methylpyrazine-2-carboxamide], the figures for the IC50 in assay [1], in assay [2] and in assay [3] were 715 µM, 0.352 µM and 0.031 µM, respectively.
With `COc1cnc(C(=O)Nc2cc(C)c(F)c([C@@]3(C(F)F)N=C(N)O[C@@H]4C[C@@H]43)c2)c(C)c1` [Example 305, N-(3-((1R,5S,6R)-3-amino-5-(difluoromethyl)-2-oxa-4-azabicyclo[4.1.0]hept-3-en-5-yl)-4-fluoro-5-methylphenyl)-5-methoxy-3-methylpicolinamide], the IC50 was found to be 288 µM in assay [1], 0.118 µM in assay [2] and 0.0696 µM in assay [3].
